Laboratory results taken from ChEMBL document CHEMBL4138123, “Design, synthesis and biological evaluation of novel pyrazolochalcones as potential modulators of PI3K/Akt/mTOR pathway and inducers of apoptosis in breast cancer cells” (Eur J Med Chem, 2017).

How the values were obtained:
Type in all cases: functional
SNB-19 = test: Cytotoxicity against human SNB19 cells assessed as growth inhibition after 48 hrs by sulforhodamine B assay; settings: SNB-19, 48 h
U-251 [1] = test: Cytotoxicity against human U251 cells assessed as growth inhibition after 48 hrs by sulforhodamine B assay; settings: U-251, 48 h
LOX IMVI = test: Cytotoxicity against human LOXIMVI cells assessed as growth inhibition after 48 hrs by sulforhodamine B assay
UACC-257 [2] = test: Cytotoxicity against human UACC257 cells assessed as growth inhibition after 48 hrs by sulforhodamine B assay; settings: UACC-257, 48 h
OVCAR-4 [3] = test: Cytotoxicity against human OVCAR4 cells assessed as growth inhibition after 48 hrs by sulforhodamine B assay; settings: OVCAR-4, 48 h
RXF 393 [4] = test: Cytotoxicity against human RXF393 cells assessed as growth inhibition after 48 hrs by sulforhodamine B assay; settings: RXF 393, 48 h
DU-145 = test: Cytotoxicity against human DU145 cells assessed as growth inhibition after 48 hrs by sulforhodamine B assay; settings: DU-145, 48 h
Hs-578T [5] = test: Cytotoxicity against human Hs 578T cells assessed as growth inhibition after 48 hrs by sulforhodamine B assay
BT-549 [6] = test: Cytotoxicity against human BT549 cells assessed as growth inhibition after 48 hrs by sulforhodamine B assay; settings: BT-549, 48 h
ACHN = test: Cytotoxicity against human ACHN cells assessed as cell growth at 0.01 uM after 48 hrs by sulforhodamine B assay relative to control; settings: read-out: Activity
OVCAR-3 = test: Cytotoxicity against human OVCAR3 cells assessed as cell growth at 0.01 uM after 48 hrs by sulforhodamine B assay relative to control; settings: OVCAR-3, 48 h, read-out: Activity
UACC-257 [7] = test: Cytotoxicity against human UACC257 cells assessed as cell growth at 0.01 uM after 48 hrs by sulforhodamine B assay relative to control; settings: UACC-257, 48 h, read-out: Activity
NCI-H522 [8] = test: Cytotoxicity against human NCI-H522 cells assessed as cell growth at 0.01 uM after 48 hrs by sulforhodamine B assay relative to control; settings: NCI-H522, 48 h, read-out: Activity
HL-60(TB) = test: Cytotoxicity against human HL-60(TB) cells assessed as cell growth at 0.1 uM after 48 hrs by sulforhodamine B assay relative to control; settings: HL-60, 48 h, read-out: Activity
HCT-116 = test: Cytotoxicity against human HCT116 cells assessed as cell growth at 0.1 uM after 48 hrs by sulforhodamine B assay relative to control; settings: HCT-116, 48 h, read-out: Activity
SW-620 = test: Cytotoxicity against human SW620 cells assessed as cell growth at 0.1 uM after 48 hrs by sulforhodamine B assay relative to control; settings: SW-620, 48 h, read-out: Activity
U-251 [9] = test: Cytotoxicity against human U251 cells assessed as cell growth at 0.1 uM after 48 hrs by sulforhodamine B assay relative to control; settings: U-251, 48 h, read-out: Activity
Malme-3M = test: Cytotoxicity against human MALME-3M cells assessed as cell growth at 0.1 uM after 48 hrs by sulforhodamine B assay relative to control; settings: read-out: Activity
UACC-257 [10] = test: Cytotoxicity against human UACC257 cells assessed as cell growth at 0.1 uM after 48 hrs by sulforhodamine B assay relative to control; settings: UACC-257, 48 h, read-out: Activity
UACC-62 [11] = test: Cytotoxicity against human UACC62 cells assessed as cell growth at 0.1 uM after 48 hrs by sulforhodamine B assay relative to control; settings: UACC-62, 48 h, read-out: Activity
786-0 = test: Cytotoxicity against human 786-0 cells assessed as cell growth at 0.1 uM after 48 hrs by sulforhodamine B assay relative to control; settings: 786-0, 48 h, read-out: Activity
MCF7 [12] = test: Cytotoxicity against human MCF7 cells assessed as cell growth at 0.1 uM after 48 hrs by sulforhodamine B assay relative to control; settings: MCF7, 48 h, read-out: Activity
Hs-578T [13] = test: Cytotoxicity against human Hs 578T cells assessed as cell growth at 0.1 uM after 48 hrs by sulforhodamine B assay relative to control; settings: read-out: Activity
SF-268 = test: Cytotoxicity against human SF268 cells assessed as cell growth at 1 uM after 48 hrs by sulforhodamine B assay relative to control; settings: SF-268, 48 h, read-out: Activity
RXF 393 [14] = test: Cytotoxicity against human RXF393 cells assessed as cell growth at 1 uM after 48 hrs by sulforhodamine B assay relative to control; settings: RXF 393, 48 h, read-out: Activity
PC-3 [15] = test: Cytotoxicity against human PC3 cells assessed as cell growth at 1 uM after 48 hrs by sulforhodamine B assay relative to control; settings: PC-3, 48 h, read-out: Activity
NCI-H322M = test: Cytotoxicity against human NCI-H322M cells assessed as cell growth at 10 uM after 48 hrs by sulforhodamine B assay relative to control; settings: read-out: Activity
NCI-H522 [16] = test: Cytotoxicity against human NCI-H522 cells assessed as cell growth at 10 uM after 48 hrs by sulforhodamine B assay relative to control; settings: NCI-H522, 48 h, read-out: Activity
MDA-MB-435 [17] = test: Cytotoxicity against human MDA-MB-435 cells assessed as cell growth at 10 uM after 48 hrs by sulforhodamine B assay relative to control; settings: MDA-MB-435, 48 h, read-out: Activity
MCF7 [18] = test: Cytotoxicity against human MCF7 cells assessed as cell growth at 10 uM after 48 hrs by sulforhodamine B assay relative to control; settings: MCF7, 48 h, read-out: Activity
T47D = test: Cytotoxicity against human T47D cells assessed as cell growth at 10 uM after 48 hrs by sulforhodamine B assay relative to control; settings: read-out: Activity
MDA-MB-435 [19] = test: Cytotoxicity against human MDA-MB-435 cells assessed as cell growth at 100 uM after 48 hrs by sulforhodamine B assay relative to control; settings: MDA-MB-435, 48 h, read-out: Activity
UACC-62 [20] = test: Cytotoxicity against human UACC62 cells assessed as cell growth at 100 uM after 48 hrs by sulforhodamine B assay relative to control; settings: UACC-62, 48 h, read-out: Activity
OVCAR-4 [21] = test: Cytotoxicity against human OVCAR4 cells assessed as cell growth at 100 uM after 48 hrs by sulforhodamine B assay relative to control; settings: OVCAR-4, 48 h, read-out: Activity
PC-3 [22] = test: Cytotoxicity against human PC3 cells assessed as cell growth at 100 uM after 48 hrs by sulforhodamine B assay relative to control; settings: PC-3, 48 h, read-out: Activity
BT-549 [23] = test: Cytotoxicity against human BT549 cells assessed as cell growth at 100 uM after 48 hrs by sulforhodamine B assay relative to control; settings: BT-549, 48 h, read-out: Activity
[24] = read-out: LC50 (the source's name)

COc1ccc(C(=O)/C=C/c2cc(-c3cc(OC)c(OC)c(OC)c3)n[nH]2)cc1OC
TGI (SNB-19): 3.01 µM | CC50 (SNB-19; [24]): 6.36 µM | LC50 (U-251 [1]): 4.99 µM | TGI (U-251 [1]): 2.48 µM | LC50 (LOX IMVI): 5.53 µM | TGI (LOX IMVI): 2.76 µM | LC50 (UACC-257 [2]): 5.37 µM | TGI (UACC-257 [2]): 2.83 µM | LC50 (OVCAR-4 [3]): 49.9 µM | TGI (OVCAR-4 [3]): 16.6 µM | LC50 (concentration killing 50% of cells) (RXF 393 [4]): 5.23 µM | TGI (RXF 393 [4]): 2.66 µM | TGI (DU-145): 1.84 µM | CC50 (DU-145; [24]): 4.76 µM | LC50 (Hs-578T [5]): > 100 µM | TGI (Hs-578T [5]): 8.2 µM | LC50 (concentration killing 50% of cells) (BT-549 [6]): 5.87 µM | TGI (BT-549 [6]): 2.9 µM | growth at 0.01 µM (ACHN): 101% | growth at 0.01 µM (OVCAR-3): 100% | growth at 0.01 µM (UACC-257 [7]): 85% | growth at 0.01 µM (NCI-H522 [8]): 83% | growth at 0.1 µM (HL-60(TB)): 94% | growth at 0.1 µM (HCT-116): 100% | growth at 0.1 µM (SW-620): 99% | growth at 0.1 µM (U-251 [9]): 95% | growth at 0.1 µM (Malme-3M): 92% | growth at 0.1 µM (UACC-257 [10]): 89% | growth at 0.1 µM (UACC-62 [11]): 95% | growth at 0.1 µM (786-0): 94% | growth at 0.1 µM (MCF7 [12]): 91% | growth at 0.1 µM (Hs-578T [13]): 99% | growth at 1 µM (SF-268): 89% | growth at 1 µM (RXF 393 [14]): 72% | growth at 1 µM (PC-3 [15]): 71% | growth at 10 µM (NCI-H322M): -96% | growth at 10 µM (NCI-H522 [16]): -95% | growth at 10 µM (MDA-MB-435 [17]): -92% | growth at 10 µM (MCF7 [18]): -76% | growth at 10 µM (T47D): -42% | growth at 100 µM (MDA-MB-435 [19]): -73% | growth at 100 µM (UACC-62 [20]): -93% | growth at 100 µM (OVCAR-4 [21]): -82% | growth at 100 µM (PC-3 [22]): -95% | growth at 100 µM (BT-549 [23]): -75%
